Reference: patent US20160052898A1, “NOVEL COMPOUNDS” (BAYER PHARMA AKTIENGESELLSCHAFT, priority 2013, published 2016)

Key:
[1] = test system: constitutive active colorectal cancer cell (CRC) Wnt pathway; test: HCT116 Super TopFlash cellular reporter assay (constitutive active Wnt pathway); format: cell-based; conditions: HCT116 TOP reporter cells, luciferase expression, 36 hours incubation, 50 μM to 15 nM
Description: In order to discover and characterize small molecules which inhibit the constitutive active colorectal cancer cell (CRC) Wnt pathway, a cellular reporter assay was employed. The corresponding assay cell was generated by transfection of the colorectal cancer cell line HCT116 (ATCC, #CCL-247) with the Super TopFlash vector (Morin, Science 275, 1997, 1787-1790; Molenaar et al., Cell 86 (3), 1996, 391-399). The HCT116 cell line is cultivated at 37° C. and 5% CO2 in DMEM/F-12 (Life Technologies, #11320-074), supplemented with 2 mM glutamine, 20 mM HEPES, 1.4 mM pyruvate, 0.15% Na-bicarbonate and 10% foetal bovine serum (GIBCO, #10270), this cancer cell line is pathophysiological relevant since it carries a deletion of position S45 in the β-catenin gene, leading to constitutive active Wnt signaling. Stable transfectants were generated by cotransfection with pcDNA3 and selection of stable transfected cells with 1 mg/ml G418.
(§1) In a parallel approach, HCT116 cells were cotransfected with the FOP control vector and pcDNA3. The FOP vector is identical to the TOP construct, but it contains instead of functional TCF elements a randomized, non-functional sequence. For this transfection a stable transfected cell line was generated as well.
(§2) In preparation of the assay, the two cell lines were plated 24 hrs before at 10000 cells per well of a 384 micro titre plate (MTP) in 30 μL growth medium. Selective inhibitory activity for small molecules on the mutated Wnt pathway was determined after parallel incubation of both (TOP and FOP) HCT116 reporter cell lines with a compound dilution series from 50 μM to 15 nM in steps of 3.16-fold dilutions in CAFTY buffer (130 mM NaCl, 5 mM KCl, 20 mM HEPES, 1 mM MgCl2, 5 mM NaHCO3, pH 7.4) containing 2 mM Ca^2+ and 0.01% BSA. The compounds were thereby serially prediluted in 100% DMSO and thereafter in addition 50 fold into the CAFTY compound dilution buffer (described above). From this dilution 10 μL were added to the cells in 30 μL growth medium and incubated for 36 hours at 37° C. and 5% CO2. Thereafter luciferase assay buffer (1:1 mixture of luciferase substrate buffer (20 mM Tricine, 2.67 mM MgSO4, 0.1 mM EDTA, 4 mM DTT, 270 μM Coenzyme A, 470 μM Luciferin, 530 μM ATP, ph adjusted to pH 7.8 with a sufficient volume of 5M NaOH) and Triton buffer (30 mL Triton X-100, 115 mL glycerol, 308 mg Dithiothreitol, 4.45 g Na2HPO4.2 H2O, 3.03 g Tris.HCL, ad 1 l H20, pH 7.8) was added as equal volume to the compound solution on the cells to determine luciferase expression as a measure of Wnt signaling activity in a luminometer.

[2] = test system: HCT116 FOP control reporter cell line; test: HCT116 FOP control vector reporter assay (non-functional TCF elements); format: cell-based; conditions: Homo sapiens, HCT-116, 36 h, HCT116 FOP control reporter cells, luciferase expression, 36 hours incubation, 50 μM to 15 nM; read-out: HCT116 FOPFlash IC50
Description: as §1, §2

IC50 ([1]; Homo sapiens, HCT-116, 36 h) [µM] | IC50 [2] [µM] | IC50 [1] [µM] | Compound
1.2 | ≥ 50 | – | COc1ccc(NC(=O)c2ccc(-c3ccccc3)cc2)cc1NC(=O)Cc1ccc(F)cc1 [Example 138, N-(3-{[(4-fluorophenyl)acetyl]amino}-4-methoxyphenyl)biphenyl-4-carboxamide]
0.35 | ≥ 50 | – | COc1ccc(NC(=O)c2ccc(-c3ccccc3)cc2)cc1NC(=O)[C@H](C)N1CCOCC1 [Example 54, N-(4-methoxy-3-{[(2S)-2-(morpholin-4-yl)propanoyl]amino}phenyl)biphenyl-4-carboxamide]
0.195 | 11 | – | COc1ccc(NC(=O)c2ccc(-c3ccccc3)cc2)cc1NC(=O)C1(NC(=O)OC(C)(C)C)CC1 [Example 129, tert-butyl[1-({5-[(biphenyl-4-ylcarbonyl)amino]-2-methoxyphenyl}carbamoyl)cyclopropyl]carbamate]
0.2 | ≥ 50 | – | O=C(Nc1ccc(F)c(NC(=O)C2(N3CCOCC3)CC2)c1)c1ccc(-c2ccccc2)cc1 [Example 171, N-[4-fluoro-3-({[1-(morpholin-4-yl)cyclopropyl]carbonyl}amino)phenyl]biphenyl-4-carboxamide]
1.43 | ≥ 50 | – | CC(CN1CCOCC1)C(=O)Nc1cc(C(=O)Nc2ccc(-c3ccccc3)cc2)ccc1C(F)(F)F (stereo not shown) [Example 139, N-(biphenyl-4-yl)-3-{[2-methyl-3-(morpholin-4-yl)propanoyl]amino}-4-(trifluoromethyl)benzamide]
0.755 | ≥ 50 | – | COc1ccc(NC(=O)c2ccc(-c3ccc(CN)cc3)cc2)cc1NC(=O)CN1CCOCC1 [Example 120, 4′-(aminomethyl)-N-{4-methoxy-3-[(morpholin-4-ylacetyl)amino]phenyl}biphenyl-4-carboxamide]
0.218 | 7.3 | – | COCc1ccc(C(=O)Nc2ccc(-c3ccccc3)cc2)cc1NC(=O)CN1C[C@@H]2C[C@H]1CO2 [Example 175, N-(biphenyl-4-yl)-4-(methoxymethyl)-3-{[(1S,4S)-2-oxa-5-azabicyclo[2.2.1]hept-5-ylacetyl)amino}benzamide]
3.5 | 48 | – | COc1ccc(NC(=O)c2ccc(-c3ccccc3)cc2)cc1N(Cc1ccccc1)C(=O)CN1CCOCC1 [Example 64, N-{3-[benzyl(morpholin-4-ylacetyl)amino]-4-methoxyphenyl}biphenyl-4-carboxamide]
0.524 | 6.95 | – | COc1c(F)cc(C(=O)Nc2ccc(-c3ccccc3)cc2)cc1NC(=O)CN1CCN(C)CC1 [Example 216, N-(biphenyl-4-yl)-3-fluoro-4-methoxy-5-{[(4-methylpiperazin-1-yl)acetyl]amino}benzamide]
– | 5.4 | 0.135 | COCCCOCc1ccc(C(=O)Nc2ccc(-c3ccccc3)cc2)cc1NC(=O)C(C)N1CCOCC1 (single isomer, unassigned) [Example 166, N-(biphenyl-4-yl)-4-[(3-methoxypropoxy)methyl]-3-{[(2R*)-2-(morpholin-4-yl)propanoyl]amino} benzamide]
1.1 | ≥ 50 | – | COCCOCCOc1ccc(C(=O)Nc2ccc(-c3ccc(C)cc3)cc2)cc1NC(=O)C1(N2CCOCC2)CC1 [Example 221, 4-[2-(2-methoxyethoxy)ethoxy]-N-(4′-methylbiphenyl-4-yl)-3-({[1-(morpholin-4-yl)cyclopropyl]carbonyl}amino)benzamide]
3.3 | ≥ 50 | – | COc1cccc(CC(=O)Nc2cc(NC(=O)c3ccc(-c4ccccc4)cc3)ccc2OC)c1 [Example 143, N-(4-methoxy-3-{[(3-methoxyphenyl}acetyl]amino}phenyl)biphenyl-4-carboxamide]
4.8 | ≥ 50 | – | COc1ccc(NC(=O)c2ccc(-c3ccccc3)cc2)cc1NC(=O)CC1CCCCC1 [Example 145, N-{3-((cyclohexylacetyl)amino]-4-methoxyphenyl}biphenyl-4-carboxamide]
0.26 | ≥ 50 | – | CNc1ccc(-c2ccc(C(=O)Nc3ccc(OC)c(NC(=O)CN4CCOCC4)c3)cc2)cc1 [Example 119, N-{4-methoxy-3-[(morpholin-4-ylacetyl)amino]phenyl}-4′-(methylamino)biphenyl-4-carboxamide]
0.38 | ≥ 50 | – | CCC(C(=O)Nc1cc(C(=O)Nc2ccc(-c3ccccc3)cc2)ccc1OC)N1CCOCC1 (stereo not shown) [Example 99, N-(biphenyl-4-yl)-4-methoxy-3-{[2-(morpholin-4-yl)butanoyl]amino}benzamide]
0.265 | 15 | – | COCCOCc1ccc(C(=O)Nc2ccc(-c3ccccc3)cc2)cc1NC(=O)C(C)N1CCOCC1 (single isomer, unassigned) [Example 177, N-(biphenyl-4-yl)-4-[(2-methoxyethoxy)methyl)-3-{[(2S*)-2-(morpholin-4-yl)propanoyl)amino} benzamide]
0.366 | 6.5 | – | C[S+]([O-])c1ccc(C(=O)Nc2ccc(-c3ccccc3)cc2)cc1NC(=O)CN1CCOCC1 (stereo not shown) [Example 110, N-(biphenyl-4-yl)-4-(methylsulfinyl)-3-[(morpholin-4-ylacetyl)amino]benzamide]
0.0102 | ≥ 50 | – | COC(=O)c1ccc(C(=O)Nc2ccc(-c3ccccc3)cc2)cc1NC(=O)C1(N2CCOCC2)CC1 [Example 147, methyl 4-(biphenyl-4-ylcarbamoyl)-2-({[1-(morpholin-4-yl)cyclopropyl]carbonyl}amino)benzoate]
0.925 | 33 | – | COc1ccc(C(=O)Nc2ccc(-c3ccccc3)cc2)cc1NC(=O)[C@@H](C(C)C)N1CCOCC1 [Example 137, N-(biphenyl-4-yl)-4-methoxy-3-{[(2R)-3-methyl-2-(morpholin-4-yl)butanoyl]amino} benzamide]
2.65 | ≥ 50 | – | COCCN(C)CC(=O)Nc1cc(NC(=O)c2ccc(-c3ccccc3)cc2)ccc1OC [Example 49, N-(4-methoxy-3-{[N-(2-methoxyethyl)-N-methylglycyl]amino}phenyl)biphenyl-4-carboxamide]
3.55 | ≥ 50 | – | COc1ccc(NC(=O)c2ccc(-c3cccc(N)c3)cc2)cc1NC(=O)CN1CCOCC1 [Example 209, 3′-amino-N-{4-methoxy-3-[(morpholin-4-ylacetyl)amino]phenyl} biphenyl-4-carboxamide]
0.81 | 17 | – | COCCOCc1ccc(C(=O)Nc2ccc(-c3ccccc3)cc2)cc1NC(=O)CN1CC2CCC(C1)O2 [Example 193, N-(biphenyl-4-yl)-4-[(2-methoxyethoxy)methyl]-3-[(8-oxa-3-azabicyclo[3.2.1]oct-3-ylacetyl)amino]benzamide]
0.26 | 3.42 | – | COCCCOCc1ccc(C(=O)Nc2ccc(-c3ccccc3)cc2)cc1NC(=O)CN1CC2CCC(C1)O2 [Example 176, N-(biphenyl-4-yl)-4-[(3-methoxypropoxy)methyl]-3-[(8-oxa-3-azabicyclo[3.2.1]oct-3-ylacetyl)amino]benzamide]
0.718 | 33.5 | – | COc1ccc(NC(=O)c2ccc(-c3ccccc3)cc2)cc1NC(=O)CN1CCN(C)CC1 [Example 47, N-(4-methoxy-3-{[(4-methylpiperazin-1-yl)acetyl]amino}phenyl)biphenyl-4-carboxamide]
2.45 | ≥ 50 | – | COc1ccc(NC(=O)c2ccc(-c3ccccc3)cc2)cc1NC(=O)CN1C[C@H]2C[C@@H]1CO2 [Example 205, N-(4-methoxy-3-{[(1R,4R)-2-oxa-5-azabicyclo[2.2.1]hept-5-ylacetyl]amino}phenyl) biphenyl-4-carboxamide]
0.0655 | ≥ 50 | – | O=C(CN1CCN(C2CC2)CC1)Nc1cc(C(=O)Nc2ccc(-c3ccccc3)cc2)ccc1OCC1CC1 [Example 219, N-(biphenyl-4-yl)-4-(cyclopropylmethoxy)-3-{[(4-cyclopropylpiperazin-1-yl)acetyl]amino}benzamide]
